≈ marks a conversion by molar mass, not a printed value.
What was measured:
Canidae = conditions: chronic, Dog Other
Colinus virginianus = conditions: for LD50: acute, mortality
Rattus norvegicus = conditions: for LD50: acute, mortality; for NOAEL: chronic
Anas platyrhynchos = conditions: for LD50: oral
Daphnia magna = conditions: chronic/long-term; duration: 21 days; reproduction

Compound | NOAEL (Canidae; duration: 2 years) [mg/kg-day] | NOEL (Colinus virginianus; short-term, oral, diet) [mg/kg-day] | NOAEL (Oryctolagus sp.; reproduction developmental, body weight) [mg/kg-day] | LD50 (Rattus norvegicus; oral) [mg/kg-day] | NOAEL (Rattus norvegicus) [mg/kg-day] | NOAEL (Rattus norvegicus; oral) [mg/kg-day] | NOEC (Tagia sp.; chronic/long-term, duration: 56 days) [mg/kg] | LD50 (Anas platyrhynchos; acute, unspecified, clinical signs) [mg/kg-day] | NOEL (Anas platyrhynchos; not reported) [mg/kg-day] | LD50 (Anas platyrhynchos; short-term, feed, mortality) [mg/kg-day] | NOAEL (Canidae; duration: 52 weeks, oral, hematological) [mg/kg-day] | LD50 (Colinus virginianus; oral, diet) [mg/kg-day] | LD50 (Colinus virginianus; oral) [mg/kg-day] | NOEL (Colinus virginianus; reproduction developmental) [mg/kg-day] | NOEC (Daphnia magna) [mg/L] | LC50 (Oncorhynchus mykiss; acute, duration: 96 hours, mortality) [µg/mL] | NOEC (Oncorhynchus mykiss; chronic/long-term, duration: 96 days, growth) [mg/L] | NOAEL (Oryctolagus sp.; developmental, development) [mg/kg-day] | LC50 (Tagia sp.; acute, duration: 14 days, mortality) [mg/kg]
NC(=O)c1c(Cl)cccc1Cl [2,6-Dichlorobenzamide] | 4.5 | 876 | 30 | 500 | 5.7 | 13.5 | 250 |  |  |  |  |  |  |  |  |  |  |  | 
N#Cc1c(Cl)cccc1Cl [2,6-Dichlorobenzonitrile] |  |  |  | > 2000 |  |  |  | > 50 | 35.5 | > 470 | 1 | 598 | 698 | 14.1 | 1.2 | 7.2 (≈ 41.9 µM) | 0.66 | 45 | 270

From EPA's ToxValDB 9.5 (doi:10.2903/j.efsa.2010.1705)
